Test results as given in patent publication US20220281848A1, “PYRAZOLE-SUBSTITUTED PYRROLIDINONES AS HERBICIDES” (FMC Corporation, priority 2019, published 2022).

Test system: plants
Test: Test D pre-emergence, other plants of Tables D1 and D3
Type: in vivo
Conditions: preemergent, 20 DAA
Outline: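 Seeds treated with herbicide safener; sown in soil; glasshouse, 16 h light, 65% humidity. Sprayed day 1 (pre) or ~day 12 (post). Spray in 0.2% v/v adjuvant. Scored 0–100 damage: 20 DAA pre, 15 d post.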

CCn1nc([C@@H]2CN(C)C(=O)[C@H]2C(=O)Nc2cccc(F)c2F)c2cccc(F)c21 [Compound 14]
damage to plant (100=total damage to plant; 0=no damage to plant), ABUTH (rate 15): 0
damage to plant (100=total damage to plant; 0=no damage to plant), ABUTH (rate 30): 0
damage to plant (100=total damage to plant; 0=no damage to plant), ABUTH (rate 60): 0
damage to plant (100=total damage to plant; 0=no damage to plant), ABUTH (rate 130): 0
damage to plant (100=total damage to plant; 0=no damage to plant), ABUTH (rate 250): 10
damage to plant (100=total damage to plant; 0=no damage to plant), ABUTH (rate 500): 20
damage to plant (100=total damage to plant; 0=no damage to plant), AMARE (rate 15): 0
damage to plant (100=total damage to plant; 0=no damage to plant), AMARE (rate 30): 0
damage to plant (100=total damage to plant; 0=no damage to plant), AMARE (rate 60): 0
damage to plant (100=total damage to plant; 0=no damage to plant), AMARE (rate 130): 0
damage to plant (100=total damage to plant; 0=no damage to plant), AMARE (rate 250): 0
damage to plant (100=total damage to plant; 0=no damage to plant), AMARE (rate 500): 0
damage to plant (100=total damage to plant; 0=no damage to plant), BIDPI (rate 15): 0
damage to plant (100=total damage to plant; 0=no damage to plant), BIDPI (rate 30): 0
damage to plant (100=total damage to plant; 0=no damage to plant), BIDPI (rate 60): 0
damage to plant (100=total damage to plant; 0=no damage to plant), BIDPI (rate 130): 0
damage to plant (100=total damage to plant; 0=no damage to plant), BIDPI (rate 250): 0
damage to plant (100=total damage to plant; 0=no damage to plant), BIDPI (rate 500): 0
damage to plant (100=total damage to plant; 0=no damage to plant), BRAPL (rate 15): 30
damage to plant (100=total damage to plant; 0=no damage to plant), BRAPL (rate 30): 40
damage to plant (100=total damage to plant; 0=no damage to plant), BRAPL (rate 60): 60
damage to plant (100=total damage to plant; 0=no damage to plant), BRAPL (rate 130): 90
damage to plant (100=total damage to plant; 0=no damage to plant), BRAPL (rate 250): 90
damage to plant (100=total damage to plant; 0=no damage to plant), BRAPL (rate 500): 90
damage to plant (100=total damage to plant; 0=no damage to plant), CYPES (rate 15): 0
damage to plant (100=total damage to plant; 0=no damage to plant), CYPES (rate 30): 0
damage to plant (100=total damage to plant; 0=no damage to plant), CYPES (rate 60): 0
damage to plant (100=total damage to plant; 0=no damage to plant), CYPES (rate 130): 0
damage to plant (100=total damage to plant; 0=no damage to plant), CYPES (rate 250): 0
damage to plant (100=total damage to plant; 0=no damage to plant), CYPES (rate 500): 0
damage to plant (100=total damage to plant; 0=no damage to plant), DIGSA (rate 15): 60
damage to plant (100=total damage to plant; 0=no damage to plant), DIGSA (rate 30): 80
damage to plant (100=total damage to plant; 0=no damage to plant), DIGSA (rate 60): 90
damage to plant (100=total damage to plant; 0=no damage to plant), DIGSA (rate 130): 90
damage to plant (100=total damage to plant; 0=no damage to plant), DIGSA (rate 250): 90
damage to plant (100=total damage to plant; 0=no damage to plant), DIGSA (rate 500): 90
damage to plant (100=total damage to plant; 0=no damage to plant), ECHCG (rate 15): 30
damage to plant (100=total damage to plant; 0=no damage to plant), ECHCG (rate 30): 50
damage to plant (100=total damage to plant; 0=no damage to plant), ECHCG (rate 60): 70
damage to plant (100=total damage to plant; 0=no damage to plant), ECHCG (rate 130): 90
damage to plant (100=total damage to plant; 0=no damage to plant), ECHCG (rate 250): 90
damage to plant (100=total damage to plant; 0=no damage to plant), ECHCG (rate 500): 90
damage to plant (100=total damage to plant; 0=no damage to plant), ELEIN (rate 15): 0
damage to plant (100=total damage to plant; 0=no damage to plant), ELEIN (rate 30): 0
damage to plant (100=total damage to plant; 0=no damage to plant), ELEIN (rate 60): 0
damage to plant (100=total damage to plant; 0=no damage to plant), ELEIN (rate 130): 0
damage to plant (100=total damage to plant; 0=no damage to plant), ELEIN (rate 250): 0
damage to plant (100=total damage to plant; 0=no damage to plant), ELEIN (rate 500): 0
damage to plant (100=total damage to plant; 0=no damage to plant), EPHHL (rate 15): 0
damage to plant (100=total damage to plant; 0=no damage to plant), EPHHL (rate 30): 0
damage to plant (100=total damage to plant; 0=no damage to plant), EPHHL (rate 60): 0
damage to plant (100=total damage to plant; 0=no damage to plant), EPHHL (rate 130): 0
damage to plant (100=total damage to plant; 0=no damage to plant), EPHHL (rate 250): 10
damage to plant (100=total damage to plant; 0=no damage to plant), EPHHL (rate 500): 20
damage to plant (100=total damage to plant; 0=no damage to plant), GLXMA (rate 15): 0
damage to plant (100=total damage to plant; 0=no damage to plant), GLXMA (rate 30): 0
damage to plant (100=total damage to plant; 0=no damage to plant), GLXMA (rate 60): 0
damage to plant (100=total damage to plant; 0=no damage to plant), GLXMA (rate 130): 0
damage to plant (100=total damage to plant; 0=no damage to plant), GLXMA (rate 250): 0
damage to plant (100=total damage to plant; 0=no damage to plant), GLXMA (rate 500): 0
damage to plant (100=total damage to plant; 0=no damage to plant), IPOHE (rate 15): 0
damage to plant (100=total damage to plant; 0=no damage to plant), IPOHE (rate 30): 0
damage to plant (100=total damage to plant; 0=no damage to plant), IPOHE (rate 60): 0
damage to plant (100=total damage to plant; 0=no damage to plant), IPOHE (rate 130): 0
damage to plant (100=total damage to plant; 0=no damage to plant), IPOHE (rate 250): 0
damage to plant (100=total damage to plant; 0=no damage to plant), IPOHE (rate 500): 0
damage to plant (100=total damage to plant; 0=no damage to plant), ORYSA (rate 15): 0
damage to plant (100=total damage to plant; 0=no damage to plant), ORYSA (rate 30): 0
damage to plant (100=total damage to plant; 0=no damage to plant), ORYSA (rate 60): 0
damage to plant (100=total damage to plant; 0=no damage to plant), ORYSA (rate 130): 0
damage to plant (100=total damage to plant; 0=no damage to plant), ORYSA (rate 250): 0
damage to plant (100=total damage to plant; 0=no damage to plant), ORYSA (rate 500): 0
damage to plant (100=total damage to plant; 0=no damage to plant), PANMI (rate 15): 0
damage to plant (100=total damage to plant; 0=no damage to plant), PANMI (rate 30): 0
damage to plant (100=total damage to plant; 0=no damage to plant), PANMI (rate 60): 0
damage to plant (100=total damage to plant; 0=no damage to plant), PANMI (rate 130): 0
damage to plant (100=total damage to plant; 0=no damage to plant), PANMI (rate 250): 30
damage to plant (100=total damage to plant; 0=no damage to plant), PANMI (rate 500): 80
damage to plant (100=total damage to plant; 0=no damage to plant), SETFA (rate 15): 30
damage to plant (100=total damage to plant; 0=no damage to plant), SETFA (rate 30): 70
damage to plant (100=total damage to plant; 0=no damage to plant), SETFA (rate 60): 80
damage to plant (100=total damage to plant; 0=no damage to plant), SETFA (rate 130): 80
damage to plant (100=total damage to plant; 0=no damage to plant), SETFA (rate 250): 90
damage to plant (100=total damage to plant; 0=no damage to plant), SETFA (rate 500): 90
damage to plant (100=total damage to plant; 0=no damage to plant), SIDSP (rate 15): 10
damage to plant (100=total damage to plant; 0=no damage to plant), SIDSP (rate 30): 10
damage to plant (100=total damage to plant; 0=no damage to plant), SIDSP (rate 60): 30
damage to plant (100=total damage to plant; 0=no damage to plant), SIDSP (rate 130): 30
damage to plant (100=total damage to plant; 0=no damage to plant), SIDSP (rate 250): 80
damage to plant (100=total damage to plant; 0=no damage to plant), SIDSP (rate 500): 80
damage to plant (100=total damage to plant; 0=no damage to plant), SORVU (rate 15): 0
damage to plant (100=total damage to plant; 0=no damage to plant), SORVU (rate 30): 0
damage to plant (100=total damage to plant; 0=no damage to plant), SORVU (rate 60): 0
